According to publication PMC6423038, “Deferiprone: Pan-selective Histone Lysine Demethylase Inhibition Activity and Structure Activity Relationship Study” (Scientific Reports, 2019):

What was measured:
[1] = molecular target: T1, KDM6A (UTX) (Homo sapiens, UniProt O15550); test: KDM cell-free assay (AlphaScreen, BPS Bioscience); type: biochemical; conditions: for IC50: Fig. 9A, read-out: IC50 (KDM6A inhibition dose response curve)
T1 construct: purchased BPS Bioscience

[2] = system: MCF-7; test: Cell viability assay (MTS), antiproliferative activity; type: cell-based; conditions: Homo sapiens, MCF7, 72 h
Experimental: (§1) To preliminarily profile the bioactivity of these compounds, we adopted a streamlined approach which involved screening against KDM6A at two concentrations and evaluating antiproliferative activity against three representative cell lines – MCF-7 (ER(+) BCa), MDA-MB-231 (TNBC BCa) and Vero (a non-transformed cell line as control).
(§2) The In vitro proliferation assay was performed as reported previously[15],[16]. Detailed description of the protocol used is included in the Supplementary Information.
(§3) Cell Viability Assay. All cell lines were purchased form ATCC (Manassas, VA), and they were routinely cultured in different media recommended by the supplier. MCF-7 cells were cultured in non-phenol red DMEM (Corning, Manassas, VA) fortified with 10% charcoal treated fetal bovine serum (FBS; Atlanta Biologicals, GA) and 0.2 mM glutamine (Corning, Manassas, VA), whereas MDA-MB-231, DU-145, and Vero were cultured in DMEM with 10% FBS. […] After 24 h incubation in 37 °C under 5% CO2, cells were treated with serially diluted ligands with final DMSO concentration of 1% and incubated for additional 72 h. MTS (CellTiter 96 Aqueous One Solution Cell Proliferation Assays, Promega, Madison, WI) was added to each well 2.5 h prior to recording the absorbance at 490 nm.

[3] = system: MDA-MB-231; test: as above; type: cell-based; conditions: Homo sapiens, 72 h
Experimental: as §1, §2, §3

[4] = system: VERO; test: as above; type: cell-based; conditions: Chlorocebus sabaeus, 72 h
Experimental: as §1, §2, §3

[5] = system: HP1-mediated heterochromatin gene repression in CiA:Oct4 embryonic stem cells; test: HP1-recruitment assay dose curve (CiA:Oct4, with CIP-rapamycin), flow cytometry; type: cell-based, mouse; conditions: 48 h with CIP-rapamycin recruitment of HP1; for concentration reaching maximum inhibition of heterochromatin formation / gene repression: doses 250 nM–10 µM
From the text: To elucidate the effect of DFP-based KDM inhibitors on chromatin dynamics, we profiled them in an intracellular assay which measures heterochromatin formation speed. The chromatin in vivo assay (CiA) leverages chemical induced proximity (CIP) to recruit heterochromatin protein 1 (HP1) to a modified Oct4 locus. This reporter system is composed of tandem arrays of Gal4 and zinc finger DNA binding domains in the promoter of one allele of Oct4, where the gene was replaced by a nuclear eGFP reporter. Protein fusions of Gal4-FKBP and FRB-HP1 allow for direct chemical recruitment of HP1 to the CiA:Oct4 reporter locus upon addition of the chemical inducer of proximity (CIP)-rapamycin. After CIP-rapamycin addition, HP1 is recruited to the reporter locus and brings histone methyltransferase enzymes to the chromatin reporter resulting in the repressive H3K9me3 mark being deposited (Fig. 10A). H3K9me3 deposition is the signature mark of heterochromatin and is coupled with gene silencing and loss of GFP expression (Fig. 10B)[33]. Others have shown that H3K4me3 marked nucleosomes impede H3K9 methyltransferase activity. Thus, we postulate that the active H3K4me3 mark must be removed by KDM enzymes as part of the transformation from euchromatin to heterochromatin. Inhibition of KDMs, specifically those targeting H3K4me3, would result in a decrease in H3K9me3 accumulation, which would be measured in our assay as an increase in GFP positive cells.
To determine the effect of DFP-based KDM inhibitors on HP1-mediated gene repression, we treated CiA:Oct4 embryonic stem (ES) cells with doses of representative compounds ranging from 10 µM–250 nM for 48 h with CIP-rapamycin recruitment of HP1 (Fig. 10C). […] The percentage of GFP(+) cells was determined by flow cytometry as indicated in representative histograms (Supplemental Fig. S8).
(§4) Day 0, CiA:Oct4 N118/163 cells were grown in ES media and seeded at a density of 10,000 cells per well in 100 μL media (100,000 cells mL^−1) on gelatin coated 96 well plates. Day 1, culture media was aspirated and replaced with 100 µL ES media containing +/− 6 nM rapamycin. 10 µM, 5 µM, 2.5 µM, 1 µM, 500 nM, and 250 nM concentrations of compound or DMSO were added using a TTP Labtech Mosquito HTS liquid handler. Days 2, fresh ES media +/− rapamycin and compound were added as in Day 1. Day 3, cells were washed with PBS and trypsinized using 0.25% trypsin-EDTA. Trypsin was quenched with serum. Cells were resuspended by pipetting in preparation for flow cytometry analysis.
(§5) Flow cytometry data was acquired using the Intellicyt iQue Screener and analyzed with FlowJo software.
The CiA:Oct4 recruitment system in mouse embryonic stem cells contains Gal4 and Zinc finger DNA binding arrays and a downstream nuclear eGFP gene in place of a single Oct4 allele as previously described.^30 The CiA:Oct4 N118/N163 cell line containing viral integrations of N118 and N163 plasmids (N118- nLV EF-1α-Gal-FKBPx1-HA-PGK-Blast, N163- nLV EF-1α-HP1α (CS)-Frbx2(Frb+FrbWobb)-V5-PGK-Puro) was used for inhibition of HP1-mediated heterochromatin studies. All plasmids are freely available on addgene.
(§6) HP1-Recruitment Assay Dose Curve. Day 0, CiA:Oct4 N118/163 cells were grown in ES media and seeded at a density of 10,000 cells per well in 100 µL media (100,000 cells mL^-1) on gelatin coated 96 well plates. Day 1, culture media was aspirated and replaced with 100 µL ES media containing +/- 6 nM rapamycin. 10 µM, 5 µM, 2.5 µM, 1 µM, 500 nM, and 250 nM concentrations of compound or DMSO were added using a TTP Labtech Mosquito HTS liquid handler. Days 2, fresh ES media +/- rapamycin and compound were added as in Day 1. Day 3, cells were washed with PBS and trypsinized using 0.25% trypsin-EDTA. Trypsin was quenched with serum. Cells were resuspended by pipetting in preparation for flow cytometry analysis.
Flow Cytometry and Analysis.

[6] = system: Oct4 GFP expression in CiA:Oct4 embryonic stem cells; test: CiA:Oct4 reporter dose response without HP1 recruitment (no CIP-rapamycin), flow cytometry; type: cell-based, mouse; conditions: 48 h without HP1 recruitment; for decrease in the percentage of GFP(+) cells: at 2.5 µM
From the text: Embryonic stem cells are sensitive to environmental stimuli which may trigger cell differentiation. During mammalian stem cell differentiation or exposure to toxic compounds, Oct4 is known to be repressed as cells lose reinforcement of the pluripotency transcriptional activation network[35],[36]. Therefore, the CiA:Oct4 reporter without CIP-recruitment of HP1 functions is a valid system to determine how much cell differentiation or toxicity is occurring by measuring the GFP expression levels. To elucidate the effect of DFP-based KDM inhibitors on Oct4 GFP expression in the absence of HP1 recruitment, we performed dose response studies without addition of CIP-rapamycin (Fig. 11A).
as §4, §5, §6
Flow Cytometry and Analysis. Flow cytometry data was acquired using the Intellicyt iQue Screener and analyzed with FlowJo software. Cell populations were gated based on forward and side scatter height. Single cell populations were gated using forward scatter area by forward scatter height. Autofluorescent cells were excluded and the remaining cells were gated into GFP (-) and GFP (+) populations based on DMSO control samples.

[7] = system: T47D cells; test: Viability of T47D cells at three concentrations; type: cell-based, human; conditions: Fig. S9
Experimental: To determine the antitumor potential of the DFP-based KDM inhibitors, we investigated the efficacy of a representative example, 2j, in two murine xenograft models of BCa. The xenografts were established using two human BCa cell lines – T47D (ER(+)) and MDA-MB-231 (ER(−)). […] Because our in vitro study was conducted using MCF-7 as a model of ER(+) cell, we first tested the effect of 2j on the viability of T47D cells at three concentrations. […] The effect of 2j on T47D viability mirrored that of its effect on MCF-7, confirming preferential cytotoxicity of the DFP-based agents […]. Once we established that T47D cells are sensitive to 2j, xenografts of T47D and MDA-MB-231 were established in female athymic nude mice (8-week old) by injection of cells (1 × 10^7) into the mammary fat pad as described previously[37],[38]. After the tumor volume reached ~250 mm^3, mice were treated with 2j (25 mg/kg body weight) for 8 weeks. […] Relative to control, 2j caused approx. 81% (4426 vs 884 mm^3) and 70% (5116 vs 1536 mm^3) reduction in the growth of T47D and MDA-MBMB-231 tumors, respectively.

[8] = system: MDA-MB-231 tumors; test: Mouse xenograft assay, MDA-MB-231 (ER(−)); type: in vivo; conditions: MDA-MB-231 xenograft
[9] = Table 5, values calculated by linear regression

T1 sequence (O15550 whole entry): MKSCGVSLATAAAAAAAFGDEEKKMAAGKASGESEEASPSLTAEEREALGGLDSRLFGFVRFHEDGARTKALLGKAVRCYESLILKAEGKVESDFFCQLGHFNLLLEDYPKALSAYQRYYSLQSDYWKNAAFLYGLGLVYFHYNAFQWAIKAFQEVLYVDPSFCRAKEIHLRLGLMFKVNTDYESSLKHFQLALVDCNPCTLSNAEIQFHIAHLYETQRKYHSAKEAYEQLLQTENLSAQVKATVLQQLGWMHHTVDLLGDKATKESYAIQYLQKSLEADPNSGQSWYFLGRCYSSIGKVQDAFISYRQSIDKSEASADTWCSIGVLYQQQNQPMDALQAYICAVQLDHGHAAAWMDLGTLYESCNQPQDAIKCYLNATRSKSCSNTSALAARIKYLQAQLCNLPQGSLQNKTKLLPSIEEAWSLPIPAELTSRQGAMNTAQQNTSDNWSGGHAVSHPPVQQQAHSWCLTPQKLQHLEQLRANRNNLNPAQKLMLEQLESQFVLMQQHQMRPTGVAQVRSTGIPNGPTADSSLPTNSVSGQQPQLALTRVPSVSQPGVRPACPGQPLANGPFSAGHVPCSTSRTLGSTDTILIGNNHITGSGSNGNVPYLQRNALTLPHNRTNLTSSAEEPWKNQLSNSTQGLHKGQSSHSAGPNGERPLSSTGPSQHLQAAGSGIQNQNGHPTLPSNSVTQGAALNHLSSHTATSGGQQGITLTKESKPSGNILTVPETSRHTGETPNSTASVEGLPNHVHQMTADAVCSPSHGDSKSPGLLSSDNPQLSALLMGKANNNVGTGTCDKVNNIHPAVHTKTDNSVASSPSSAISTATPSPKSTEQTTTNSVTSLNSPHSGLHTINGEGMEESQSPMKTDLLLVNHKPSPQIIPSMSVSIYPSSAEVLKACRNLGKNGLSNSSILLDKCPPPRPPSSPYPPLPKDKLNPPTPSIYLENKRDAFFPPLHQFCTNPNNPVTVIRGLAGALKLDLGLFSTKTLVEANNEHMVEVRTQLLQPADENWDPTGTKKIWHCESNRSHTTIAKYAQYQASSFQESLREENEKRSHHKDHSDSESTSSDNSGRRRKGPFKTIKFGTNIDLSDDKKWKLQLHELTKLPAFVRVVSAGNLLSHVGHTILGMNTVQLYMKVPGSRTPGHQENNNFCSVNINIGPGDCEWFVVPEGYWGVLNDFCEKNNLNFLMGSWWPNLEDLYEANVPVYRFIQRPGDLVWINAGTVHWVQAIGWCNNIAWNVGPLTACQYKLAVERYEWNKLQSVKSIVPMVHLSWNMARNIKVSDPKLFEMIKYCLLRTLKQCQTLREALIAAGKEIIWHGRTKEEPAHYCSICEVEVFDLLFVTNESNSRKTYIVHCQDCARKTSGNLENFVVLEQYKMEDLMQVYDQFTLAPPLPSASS

Row | SMILES | inhibition at 1 µM ([1]; Table 2) [%] | inhibition at 10 µM ([1]; Table 2) [%] | IC50 ([2]; Table 5) [µM] | IC50 ([3]; Table 5) [µM] | IC50 ([4]; Table 5) [µM] | concentration reaching maximum inhibition of heterochromatin formation / gene repression [5] [µM] | decrease in the percentage of GFP(+) cells [6] | IC50 [2, 9] [µM] | IC50 [1] [µM] | further results
1 | COc1ccc2cc(-c3cn(CCCCCCn4ccc(=O)c(O)c4C)nn3)ccc2c1 [2w] | 16 | 57 | > 50 | 1.2 | 3.9 | 1 | ~ 30% | – | – | –
2 | Cc1c(O)c(=O)ccn1CCCCCCn1cc(-c2ccc(-c3ccccc3)cc2)nn1 [2v] | 12 | 49 | > 50 | 2.5 | 4.9 | 1 | ~ 30% | – | – | –
3 | Cc1c(O)c(=O)ccn1CCCCCn1cc(-c2ccc(-c3ccncc3)cc2)nn1 [2t] | 8 | 99 | – | 3.6 | 29.2 | 10 | – | 37.6 | – | decrease in percentage GFP(+) cells ([6]; only at the 10 µM dose): ~ 20%
4 | COc1cccc(-c2cn(CCCCCn3ccc(=O)c(O)c3C)nn2)c1 [2j] | 8 | 100 | – | 10.6 | > 50 | – | – | 34.1 | 3.2 | increase in the number of GFP positive cells [5]: 20%; growth of T47D cells [7]: dose-dependent reduction; reduction in the growth of tumors relative to control ([8]; athymic nude mice, 25 mg/kg body weight for 8 weeks): ~70%; tumor volume ([8]; 25 mg/kg for 8 weeks, control 5116 mm^3): 1536 mm^3
5 | Cc1c(O)c(=O)ccn1CCn1cc(-c2ccccc2)nn1 [1a] | 12 | 96 | – | – | – | – | – | – | – | IC50 ([2]; Table 4): > 50 µM; IC50 ([3]; Table 4): > 50 µM; IC50 ([4]; Table 4): > 100 µM; inhibition of heterochromatin formation ([5]; up to 10 µM): did not inhibit heterochromatin formation
6 | Cc1c(O)c(=O)ccn1C1CCC(CC2CCC(n3ccc(=O)c(O)c3C)CC2)CC1 (stereo not drawn) [3g] | – | – | – | – | – | 2.5 | ~ 30% | – | 1.7 | inhibition at 1 µM ([1]; Table 3): 9%; inhibition at 10 µM ([1]; Table 3): 100%; IC50 ([2]; Table 6, values calculated by linear regression): 31.1 µM; IC50 ([3]; Table 6): 3.5 µM; IC50 ([4]; Table 6): > 50 µM
